Laboratory results reported in PubChem BioAssay (NCI).
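1) Cells in 96-well plates. 2) Compound, 48 h, 5 concentrations. 3) Linear interpolation between surrounding doses. 4) Unreached endpoint = highest concentration. GI50 = concentration required for 50% inhibition of growth. TGI denotes the concentration required for complete inhibition of growth.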

Legend:
Assay in all cases: growth of human tumour cells (NCI), 48 h
A549 NSCLC = test system: A549 NSCLC
OVCAR-5 ovarian = test system: OVCAR-5 ovarian
IGROV1 ovarian = test system: IGROV1 ovarian
HL-60(TB) leukemia = test system: HL-60(TB) leukemia
SNB-19 CNS = test system: SNB-19 CNS
HCC-2998 colon = test system: HCC-2998 colon
COLO 205 colon = test system: COLO 205 colon
KM12 colon = test system: KM12 colon
DU-145 prostate = test system: DU-145 prostate
NCI-H460 lung = test system: NCI-H460 lung
NCI-H226 lung = test system: NCI-H226 lung
SK-OV-3 ovarian = test system: SK-OV-3 ovarian
HS 578T breast = test system: HS 578T breast
SR leukemia = test system: SR leukemia
ACHN renal = test system: ACHN renal
HCT-116 colon = test system: HCT-116 colon
RPMI-8226 leukemia = test system: RPMI-8226 leukemia
OVCAR-4 ovarian = test system: OVCAR-4 ovarian
SK-MEL-28 melanoma = test system: SK-MEL-28 melanoma
SF-268 CNS = test system: SF-268 CNS
A498 renal = test system: A498 renal
PC-3 prostate = test system: PC-3 prostate
MOLT-4 leukemia = test system: MOLT-4 leukemia
CAKI-1 renal = test system: CAKI-1 renal
HT29 colon = test system: HT29 colon
T-47D breast = test system: T-47D breast
MCF7 breast = test system: MCF7 breast
MDA-MB-231 breast = test system: MDA-MB-231 breast
NCI-H23 lung = test system: NCI-H23 lung
MDA-MB-435 = test system: MDA-MB-435
HOP-62 NSCLC = test system: HOP-62 NSCLC
SW-620 colon = test system: SW-620 colon
SN12C renal = test system: SN12C renal
HCT-15 colon = test system: HCT-15 colon
SNB-75 CNS = test system: SNB-75 CNS
M14 melanoma = test system: M14 melanoma
U251 CNS = test system: U251 CNS
K-562 leukemia = test system: K-562 leukemia
MALME-3M melanoma = test system: MALME-3M melanoma
CCRF-CEM leukemia = test system: CCRF-CEM leukemia
UACC-257 melanoma = test system: UACC-257 melanoma
UACC-62 melanoma = test system: UACC-62 melanoma
SF-295 CNS = test system: SF-295 CNS
NCI-H522 lung = test system: NCI-H522 lung
786-0 renal = test system: 786-0 renal
EKVX NSCLC = test system: EKVX NSCLC
NCI/ADR-RES ovarian = test system: NCI/ADR-RES ovarian
OVCAR-8 ovarian = test system: OVCAR-8 ovarian
UO-31 renal = test system: UO-31 renal
HOP-92 NSCLC = test system: HOP-92 NSCLC
TK-10 renal = test system: TK-10 renal
SF-539 CNS = test system: SF-539 CNS
LOX IMVI melanoma = test system: LOX IMVI melanoma
BT-549 breast = test system: BT-549 breast
RXF 393 renal = test system: RXF 393 renal
SK-MEL-2 melanoma = test system: SK-MEL-2 melanoma
SK-MEL-5 melanoma = test system: SK-MEL-5 melanoma

With `CC[C@]12C=CCN3CC[C@]4(C(=C(C(=O)OC)C1)Nc1cc5c(cc14)[C@@H]1[C@H](O5)[C@@H](O)[C@@]4(CC)CC(C(=O)OC)=C5Nc6cc(O)ccc6[C@@]56CCN1C46)C32` (stereo partly specified) the GI50 (A549 NSCLC) was 259 nM, the TGI (A549 NSCLC) was 9990 nM and the GI50 (OVCAR-5 ovarian) was 262 nM. For the same compound, the TGI (OVCAR-5 ovarian) was greater than 22400 nM, the GI50 (IGROV1 ovarian) was 112 nM and the GI50 (HL-60(TB) leukemia) was 19.8 nM. The TGI (HL-60(TB) leukemia) was 2110 nM, the GI50 (SNB-19 CNS) was 210 nM and the TGI (SNB-19 CNS) was greater than 25600 nM. The GI50 (HCC-2998 colon) was 75.2 nM, the TGI (HCC-2998 colon) was 335 nM and the GI50 (COLO 205 colon) was 119 nM. The TGI (COLO 205 colon) was 619 nM, the GI50 (KM12 colon) was 256 nM and the TGI (KM12 colon) was 6990 nM. The GI50 (DU-145 prostate) was 707 nM, the TGI (DU-145 prostate) was greater than 26400 nM and the GI50 (NCI-H460 lung) was 332 nM. The TGI (NCI-H460 lung) was 8080 nM, the GI50 (NCI-H226 lung) was 179 nM and the GI50 (SK-OV-3 ovarian) was 172 nM. It also gave a TGI (SK-OV-3 ovarian) of 1060 nM, a GI50 (HS 578T breast) of 172 nM and a TGI (HS 578T breast) greater than 50000 nM. The GI50 (SR leukemia) was 40.1 nM, the TGI (SR leukemia) was 4280 nM and the GI50 (ACHN renal) was 153 nM. The TGI (ACHN renal) was 1100 nM, the GI50 (HCT-116 colon) was 72.7 nM and the TGI (HCT-116 colon) was 597 nM. It also gave a GI50 (RPMI-8226 leukemia) of 79.8 nM, a TGI (RPMI-8226 leukemia) of 990 nM and a GI50 (OVCAR-4 ovarian) of 213 nM. For the same compound, the TGI (OVCAR-4 ovarian) was greater than 50000 nM, the GI50 (SK-MEL-28 melanoma) was 410 nM and the TGI (SK-MEL-28 melanoma) was 18400 nM. It also gave a GI50 (SF-268 CNS) of 352 nM, a TGI (SF-268 CNS) greater than 20700 nM and a GI50 (A498 renal) of 81.8 nM. For the same compound, the TGI (A498 renal) was 407 nM, the GI50 (PC-3 prostate) was 128 nM and the TGI (PC-3 prostate) was 8000 nM. The GI50 (MOLT-4 leukemia) was 134 nM, the TGI (MOLT-4 leukemia) was greater than 50000 nM and the GI50 (CAKI-1 renal) was 39.8 nM. The TGI (CAKI-1 renal) was 1590 nM, the GI50 (HT29 colon) was 153 nM and the TGI (HT29 colon) was 1830 nM. It also gave a GI50 (T-47D breast) of 103 nM, a GI50 (MCF7 breast) of 27 nM and a TGI (MCF7 breast) greater than 50000 nM. The GI50 (MDA-MB-231 breast) was 94.3 nM, the TGI (MDA-MB-231 breast) was 40200 nM and the GI50 (NCI-H23 lung) was 165 nM. It also gave a TGI (NCI-H23 lung) of 1650 nM, a GI50 (MDA-MB-435) of 106 nM and a TGI (MDA-MB-435) of 1520 nM. For the same compound, the GI50 (HOP-62 NSCLC) was 136 nM, the TGI (HOP-62 NSCLC) was greater than 15300 nM and the GI50 (SW-620 colon) was 167 nM. For the same compound, the TGI (SW-620 colon) was 2270 nM, the GI50 (SN12C renal) was 185 nM and the TGI (SN12C renal) was greater than 9990 nM. For the same compound, the GI50 (HCT-15 colon) was 92.7 nM, the TGI (HCT-15 colon) was 358 nM and the GI50 (SNB-75 CNS) was 369 nM. The TGI (SNB-75 CNS) was greater than 50000 nM, the GI50 (M14 melanoma) was 109 nM and the TGI (M14 melanoma) was 9550 nM. It also gave a GI50 (U251 CNS) of 195 nM, a TGI (U251 CNS) of 2580 nM and a GI50 (K-562 leukemia) of 47.5 nM. It also gave a TGI (K-562 leukemia) greater than 50000 nM, a GI50 (MALME-3M melanoma) of 128 nM and a TGI (MALME-3M melanoma) of 9230 nM. The GI50 (CCRF-CEM leukemia) was 94 nM, the TGI (CCRF-CEM leukemia) was greater than 50000 nM and the GI50 (UACC-257 melanoma) was 122 nM. It also gave a TGI (UACC-257 melanoma) greater than 21500 nM, a GI50 (UACC-62 melanoma) of 85.9 nM and a TGI (UACC-62 melanoma) of 40300 nM. The GI50 (SF-295 CNS) was 187 nM, the TGI (SF-295 CNS) was 9340 nM and the GI50 (NCI-H522 lung) was 61.4 nM. The TGI (NCI-H522 lung) was 324 nM, the GI50 (786-0 renal) was 68.5 nM and the TGI (786-0 renal) was 4040 nM. It also gave a GI50 (EKVX NSCLC) of 239 nM, a TGI (EKVX NSCLC) greater than 24500 nM and a GI50 (NCI/ADR-RES ovarian) of 293 nM. The TGI (NCI/ADR-RES ovarian) was greater than 50000 nM, the GI50 (OVCAR-8 ovarian) was 166 nM and the TGI (OVCAR-8 ovarian) was greater than 16000 nM. For the same compound, the GI50 (UO-31 renal) was 93.3 nM, the TGI (UO-31 renal) was 3070 nM and the GI50 (HOP-92 NSCLC) was 15.7 nM. The TGI (HOP-92 NSCLC) was 1050 nM, the GI50 (TK-10 renal) was 64.2 nM and the TGI (TK-10 renal) was 645 nM. For the same compound, the GI50 (SF-539 CNS) was 181 nM, the TGI (SF-539 CNS) was 8140 nM and the GI50 (LOX IMVI melanoma) was 59.7 nM. It also gave a TGI (LOX IMVI melanoma) of 135 nM, a GI50 (BT-549 breast) of 168 nM and a TGI (BT-549 breast) of 1300 nM. The GI50 (RXF 393 renal) was 162 nM, the TGI (RXF 393 renal) was 977 nM and the GI50 (SK-MEL-2 melanoma) was 164 nM. It also gave a TGI (SK-MEL-2 melanoma) of 1580 nM, a GI50 (SK-MEL-5 melanoma) of 217 nM and a TGI (SK-MEL-5 melanoma) greater than 15300 nM.
